# Target: Cannabinoid receptor 1 (Homo sapiens, UniProt P21554)
# Assay: ChEBML_1680109
# Text: Agonist activity at human CB1 receptor expressed in mouse AtT-20 cells co expressing GIRK by FLIPR assay
# Sequence of Cannabinoid receptor 1 (P21554 whole entry): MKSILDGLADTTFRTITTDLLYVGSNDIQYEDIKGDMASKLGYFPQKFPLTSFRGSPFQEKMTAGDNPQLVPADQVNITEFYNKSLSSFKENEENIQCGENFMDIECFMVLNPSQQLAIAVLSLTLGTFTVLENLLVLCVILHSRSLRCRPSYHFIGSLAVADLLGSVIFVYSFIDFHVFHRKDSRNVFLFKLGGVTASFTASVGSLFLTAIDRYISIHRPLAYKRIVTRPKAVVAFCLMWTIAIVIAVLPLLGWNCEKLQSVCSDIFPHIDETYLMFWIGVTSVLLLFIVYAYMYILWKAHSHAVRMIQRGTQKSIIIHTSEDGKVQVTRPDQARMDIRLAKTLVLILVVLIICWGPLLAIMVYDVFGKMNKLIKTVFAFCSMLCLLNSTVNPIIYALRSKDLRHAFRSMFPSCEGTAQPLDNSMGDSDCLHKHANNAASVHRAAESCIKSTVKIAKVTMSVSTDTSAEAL
smiles,measurement,value
CC(C)[C@H](NC(=O)c1nn(Cc2ccc(F)cc2)c2ccccc12)C(N)=O,EC50,2.1 nM
